# Experimental data published in PubChem BioAssay AID588807 (The Scripps Research Institute Molecular Screening Center, 2011).
# The source made the active and inactive calls. No rule for the calls is given here.
# Key:
# Assay in all cases: competitive ABPP of Abhd10 versus anti-targets – biochemical, fluorescence, gel-based, mouse proteome, selectivity assay for PME-1 inhibitor project, late-stage follow-up (AID 588807)
# Kiaa1363 = conditions: anti-target, at 10 µM, stronger effect = higher value
# [1] = target: Prolyl endopeptidase (Mus musculus) (UniProt Q9QUR6); conditions: PREP, anti-target, stronger effect = higher value
# Prolyl endopeptidase (Mus musculus), sequence (Q9QUR6 whole entry, looked up): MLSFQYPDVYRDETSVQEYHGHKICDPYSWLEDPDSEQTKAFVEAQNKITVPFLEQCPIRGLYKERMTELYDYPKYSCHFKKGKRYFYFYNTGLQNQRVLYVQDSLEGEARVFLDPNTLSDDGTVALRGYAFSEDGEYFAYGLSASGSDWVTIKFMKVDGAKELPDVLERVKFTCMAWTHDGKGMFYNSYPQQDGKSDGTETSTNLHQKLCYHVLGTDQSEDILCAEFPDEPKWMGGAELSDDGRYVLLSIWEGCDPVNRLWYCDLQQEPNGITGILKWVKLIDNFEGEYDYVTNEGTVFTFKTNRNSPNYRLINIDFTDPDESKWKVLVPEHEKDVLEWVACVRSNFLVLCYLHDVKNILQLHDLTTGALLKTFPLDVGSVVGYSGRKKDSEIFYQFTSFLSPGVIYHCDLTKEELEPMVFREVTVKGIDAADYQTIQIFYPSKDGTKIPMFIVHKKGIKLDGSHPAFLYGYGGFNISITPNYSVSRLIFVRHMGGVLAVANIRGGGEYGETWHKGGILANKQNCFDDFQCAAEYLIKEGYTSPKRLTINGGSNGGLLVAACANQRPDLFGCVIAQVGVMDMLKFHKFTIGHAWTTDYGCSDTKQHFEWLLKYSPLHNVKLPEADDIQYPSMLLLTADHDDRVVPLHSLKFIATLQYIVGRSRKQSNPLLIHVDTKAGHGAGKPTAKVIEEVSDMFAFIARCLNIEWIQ
# [2] = target: Monoacylglycerol lipase ABHD6 (Mus musculus) (UniProt Q8R2Y0); conditions: anti-target, at 10 µM, stronger effect = higher value
# Monoacylglycerol lipase ABHD6 (Mus musculus), sequence (Q8R2Y0 whole entry, looked up): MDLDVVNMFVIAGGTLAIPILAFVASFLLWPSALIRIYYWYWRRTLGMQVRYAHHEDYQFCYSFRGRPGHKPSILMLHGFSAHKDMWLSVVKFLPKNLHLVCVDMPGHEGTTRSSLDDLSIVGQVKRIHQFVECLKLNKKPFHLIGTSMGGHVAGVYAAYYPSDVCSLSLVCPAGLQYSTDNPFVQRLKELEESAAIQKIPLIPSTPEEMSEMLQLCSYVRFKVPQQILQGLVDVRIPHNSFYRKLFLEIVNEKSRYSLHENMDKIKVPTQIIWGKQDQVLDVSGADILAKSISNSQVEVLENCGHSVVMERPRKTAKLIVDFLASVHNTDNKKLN
# Magl = conditions: anti-target, stronger effect = higher value
# [3] = target: Palmitoyl-protein thioesterase ABHD10, mitochondrial (Mus musculus) (UniProt Q6PE15); conditions: stronger effect = higher value
# Palmitoyl-protein thioesterase ABHD10, mitochondrial (Mus musculus), sequence (Q6PE15 whole entry, looked up): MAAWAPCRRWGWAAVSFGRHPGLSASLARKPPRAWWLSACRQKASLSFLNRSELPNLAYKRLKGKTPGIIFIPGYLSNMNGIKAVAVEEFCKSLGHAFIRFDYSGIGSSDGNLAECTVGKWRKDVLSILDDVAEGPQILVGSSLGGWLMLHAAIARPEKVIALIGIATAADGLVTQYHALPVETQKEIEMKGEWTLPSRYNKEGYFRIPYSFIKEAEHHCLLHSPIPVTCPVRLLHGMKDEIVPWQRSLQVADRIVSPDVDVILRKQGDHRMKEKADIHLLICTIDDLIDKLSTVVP
# APEH = conditions: anti-target, stronger effect = higher value
Compound,inhibition (Kiaa1363),inhibition ([1]; at 10 µM),"inhibition ([1]; inhibition, at 1 µM) [%]",inhibition [2],inhibition (Magl; at 10 µM),inhibition ([3]; at 10 µM),"inhibition ([3]; inhibition, at 0.1 µM) [%]","inhibition ([3]; inhibition, at 1 µM) [%]",inhibition (APEH; at 10 µM),"inhibition (Magl; inhibition, at 1 µM) [%]","inhibition (APEH; inhibition, at 1 µM) [%]","inhibition ([1]; inhibition, at 0.1 µM) [%]"
CC[C@@]1(c2ccc(C)cc2)C(=O)N(C(=O)OC)N1C(=O)OC,15% (inactive),50% (inactive),20,25% (inactive),10% (inactive),100%,55,95,20% (inactive),,,
CCCOC(=O)N1C(=O)C(CC)(c2cccc(C)c2)N1C(=O)OCCC (stereo unspecified),0% (inactive),60% (inactive),20,70% (inactive),25% (inactive),100% (inactive),10,95,10% (inactive),10,,
CC[C@@]1(c2cccc(OC)c2)C(=O)N(C(=O)OC(C)C)N1C(=O)OC(C)C,0% (inactive),0% (inactive),,25% (inactive),0% (inactive),95% (inactive),40,90,0% (inactive),,,
C=CCOC(=O)N1C(=O)[C@@](CC)(c2ccccc2)N1C(=O)OCC=C,35% (inactive),70% (inactive),10,80% (inactive),50% (inactive),100% (inactive),30,90,55% (inactive),,,

# Now from value to compound:
inhibition (Kiaa1363),inhibition ([1]; at 10 µM),"inhibition ([1]; inhibition, at 1 µM) [%]",inhibition [2],inhibition (Magl; at 10 µM),inhibition ([3]; at 10 µM),"inhibition ([3]; inhibition, at 0.1 µM) [%]","inhibition ([3]; inhibition, at 1 µM) [%]",inhibition (APEH; at 10 µM),"inhibition (Magl; inhibition, at 1 µM) [%]","inhibition (APEH; inhibition, at 1 µM) [%]","inhibition ([1]; inhibition, at 0.1 µM) [%]",Compound
0% (inactive),0% (inactive),,0% (inactive),0% (inactive),45% (inactive),,,100% (inactive),,30,,CC[C@]1(c2ccc(C)cc2)C(=O)N(C(=O)OC(C)C)N1C(=O)OC(C)C
55% (inactive),55% (inactive),25,60% (inactive),20% (inactive),90% (inactive),10,60,0% (inactive),,,10,C=CCOC(=O)N1N(C(=O)OC)C(=O)[C@@]1(CC)c1ccccc1
10% (inactive),40% (inactive),15,75% (inactive),50% (inactive),90%,80,90,0% (inactive),,,,C=CCOC(=O)N1C(=O)[C@@](CC)(c2ccc(C)cc2)N1C(=O)OCC=C
15% (inactive),0% (inactive),,0% (inactive),10% (inactive),90% (inactive),40,85,100% (inactive),,20,,CC[C@@]1(c2cccc(F)c2)C(=O)N(C(=O)OC(C)C)N1C(=O)OC(C)C
0% (inactive),80% (inactive),,50% (inactive),25% (inactive),90% (inactive),25,90,50% (inactive),,,,CC[C@@]1(c2ccc(Cl)c(Cl)c2)C(=O)N(C(=O)OC(C)C)N1C(=O)OC(C)C
0% (inactive),0% (inactive),,10% (inactive),0% (inactive),70% (inactive),,10,0% (inactive),,,,CC[C@@]1(c2cccc(C)c2)C(=O)N(C(=O)OC(C)(C)C)N1C(=O)OC(C)(C)C
